In article PMC6472001, “Phenolic Compounds from Humulus lupulus as Natural Antimicrobial Products: New Weapons in the Fight against Methicillin Resistant Staphylococcus aureus, Leishmania mexicana and Trypanosoma brucei Strains” (Molecules, 2019):
Where two headings read alike, the source gives them in different places.

Key:
S. aureus T28.1 (MRSA) [1] = test: Broth microdilution MIC; assay type: cell-based, Staphylococcus aureus
Method: (§1) The protocol employed was inspired by Abedini et al. with some modifications. Products were solubilized in DMSO and serially diluted two-fold in MH medium. A bacterial suspension at 10^5 CFU/mL was added to obtain a final volume of 200 µL. Final phenolic product concentrations in wells ranged from 625 to 2.4 µg/mL (exception for lupulone for which dilutions were continued until 0.3 µg/mL). […] Plates were incubated overnight with stirring (60 rpm) at 37 °C.
For the following experiments, the MRSA strain T28.1, isolated from a pathological sample of osteitis, was used. It was previously characterized by DNA biochips, which allowed highlighting some β-lactamases and the SCC-mec genes confirming the methicillin resistance. Moreover, genes for enzymes and proteins involved in the capsule biosynthesis (capH5, capJ5 and capK5) and several intracellular adhesion proteins implicated in biofilm formation (icaA, icaC and icaD) were present.

S. aureus 08143 (MSSA) = test: Broth microdilution MIC; assay type: cell-based, Staphylococcus aureus; details: for MIC: S. aureus 08143 (MSSA)
Method: as §1

S. aureus T25.10 (MRSA) = test: Broth microdilution MIC; assay type: cell-based, Staphylococcus aureus; details: for MIC: S. aureus T25.10 (MRSA)
Method: as §1

S. aureus T26A4 (MSSA) = test: Broth microdilution MIC; assay type: cell-based, Staphylococcus aureus; details: for MIC: S. aureus T26A4 (MSSA)
Method: as §1

S. aureus T28.1 (MRSA) [2] = test: Synergies by checkerboard method; assay type: cell-based, Staphylococcus aureus
Method: Checkerboard method was used to assess the potential co-action of xanthohumol, desmethylxanthohumol and lupulone between them or with some antibiotics. Antibiotics were previously selected on the basis of a first screening using E-tests (BioMérieux®, France). […] Each test was performed on a 96-well microplate using an 8-by-8 well configuration. […] Wells were filled with 100 µL of MH medium, 10 µL of each compound (DMSO for products and water for antibiotics) and 80 µL of a 10^5 CFU/mL bacterial suspension with appropriate solvent controls. […] The MIC of each product alone was checked at each test. Microplates were incubated overnight at 60 rpm and 37 °C.
After visual analysis, the combination with the highest activity was determined by the calculation of the fractional inhibitory concentration (FIC) index, interpreted as synergistic (FIC < 0.5), additive (0.5 ≤ FIC ≤ 1), indifferent (1 < FIC ≤ 4) or antagonist (FIC > 4).
FIC index=MIC A with B/MIC A alone+ MIC B with A/MIC B alone

[3] = test system: Trypanosoma brucei brucei (Tbb); test: Antiparasitic activity, broth microdilution; assay type: cell-based
Method: (§2) Tbb were cultivated in HMI9 medium containing 10% heat-inactivated foetal bovine serum (FBS) (Sigma-Aldrich), […] L-cysteine and […] beta-mercaptoethanol at 37 °C (CO2 5%). Lmm (MHOM/BZ/84/BEL46) were cultivated in SDM-79 medium (Gibco) supplemented with 15% heat-inactivated FBS (Sigma-Aldrich) and 5 mg/L hemin at 28 °C (CO2 5%). Antiparasitic bioassays were performed as described by Bero et al.. Suramin (SUR) and pentamidine (PEN) were used as positive controls respectively. The hops compounds (xanthohumol, desmethylxanthohumol, humulone, lupulone) concentration that inhibits 50% of the cell viability (IC50) was determined using GraphPad Prism, version 5.01 (GraphPad Software, San Diego, CA, USA).

Candida albicans 13203 = test: First screening, agar dilution MIC; assay type: cell-based
[4] = test system: Candida albicans ATCC 10231; test: First screening, agar dilution MIC; assay type: cell-based
[5] = test system: Leishmania mexicana mexicana (Lmm); test: Antiparasitic activity, broth microdilution; assay type: cell-based
Method: as §2

[6] = test system: Hep-G2 cells (hepatocellular carcinoma); test: Cytotoxicity / antiproliferative effect; assay type: cell-based, human; details: Homo sapiens
Method: (§3) Several human cell lines were used for the cytotoxic bioassays: non-cancer lung fibroblasts (WI-38), hepatocellular carcinoma (Hep-G2), osteosarcoma (MG-63) and the mouse monocyte macrophage J774. Cells were seeded into wells of a 96-well microplate in a Gibco™ Dulbecco’s modified eagles medium (DMEM), except for MG-63 which were cultivated in a minimum essential medium (MEM) (ThermoFisher Scientific, Illkirch-Graffenstaden, France). Both media were enriched with 10% FBS (ThermoFisher Scientific, France) and some antibiotics (mixture penicillin/streptomycin 100 UI/mL, Sigma Aldrich). After one or two days at 37 °C (5% of CO2), wells were emptied by suction. Cells were then treated with hops compounds (xanthohumol, desmethylxanthohumol, humulone, lupulone) in DMSO at 0.2% in the culture medium, to obtain a final volume of 100 µL in wells (negative control: 0.2% DMSO). Camptothecin was used as a positive control. After 48 to 72 h exposure, culture medium was replaced by 10% of Alamar blue or 3-(4,5-dimethylthiazol-2-yl)-2,5-diphenyltetrazolium bromide (MTT) in the medium (ThermoFisher Scientific®, Illkirch, France) and plates were incubated the time necessary to the reaction. Results were measured respectively by fluorescence (excitation 530 nm and emission 590 nm) or by optical density at 550 nm. The IC50 of each product was determined using GraphPad Prism (version 5.01).

[7] = test system: WI-38 cells (non-cancer lung fibroblasts); test: Cytotoxicity / antiproliferative effect; assay type: cell-based, human
Method: as §3

[8] = test system: J774 cells (monocyte macrophage); test: Cytotoxicity / antiproliferative effect; assay type: cell-based, mouse
Method: as §3

[9] = test system: MG-63 cells (osteosarcoma); test: cells; assay type: cell-based, human; details: Homo sapiens, MG-63
Method: as §3

[10] = Staphylococcus aureus, S. aureus T28.1 (MRSA), read-out: MIC
[11] = Staphylococcus aureus, S. aureus T28.1 (MRSA), value in parentheses, read-out: MIC
[12] = Staphylococcus aureus, read-out: MIC
[13] = Staphylococcus aureus, value in parentheses, read-out: MIC
[14] = value in parentheses, read-out: IC50 (converted)
[15] = value in parentheses, read-out: MIC

## COc1cc(O)c(CC=C(C)C)c2c1C(=O)CC(c1ccc(O)cc1)O2 (stereo not shown) [Isoxanthohumol, isoxanthohumol]
S. aureus T28.1 (MRSA) [1]; Staphylococcus aureus, strain MRSA T28.1, read-out: MIC
  MIC: 39 µg/mL

## CC(C)=CCC1=C(O)C(CC=C(C)C)(CC=C(C)C)C(=O)C(C(=O)C(C)C)=C1O [Colupulone, colupulone]
S. aureus T28.1 (MRSA) [1]; [10]
  MIC: 39 µg/mL
S. aureus T28.1 (MRSA) [1]; [11]
  MIC: 97.5 µM
S. aureus 08143 (MSSA); [12]
  MIC: 78 µg/mL
S. aureus 08143 (MSSA); [13]
  MIC: 195 µM
S. aureus T25.10 (MRSA); [12]
  MIC: 78 µg/mL
S. aureus T25.10 (MRSA); [13]
  MIC: 195 µM
S. aureus T26A4 (MSSA); [12]
  MIC: 39 µg/mL
S. aureus T26A4 (MSSA); [13]
  MIC: 97.5 µM

## CO[C@H]1/C=C/O[C@@]2(C)Oc3c(C)c(O)c4c(O)c(c(/C=N/N5CCN(C)CC5)c(O)c4c3C2=O)NC(=O)/C(C)=C\C=C\[C@H](C)[C@H](O)[C@@H](C)[C@@H](O)[C@@H](C)[C@H](OC(C)=O)[C@@H]1C [rifampicin]
S. aureus T28.1 (MRSA) [2]; rifampicin combined with xanthohumol
  times more active when combined: 8 times

## Cc1ccc(C(=O)Nc2ccc(S(=O)(=O)O)c3cc(S(=O)(=O)O)cc(S(=O)(=O)O)c23)cc1NC(=O)c1cccc(NC(=O)Nc2cccc(C(=O)Nc3cc(C(=O)Nc4ccc(S(=O)(=O)O)c5cc(S(=O)(=O)O)cc(S(=O)(=O)O)c45)ccc3C)c2)c1 [SUR, suramin]
[3]; Trypanosoma brucei, read-out: IC50 (converted)
  IC50: 0.05 µg/mL
[3]; Trypanosoma brucei, value in parentheses, read-out: IC50 (converted)
  IC50: 0.038 µM

## C[C@@H](c1ncncc1F)[C@](O)(Cn1cncn1)c1ccc(F)cc1F [VRC, Voriconazole]
Candida albicans 13203
  Susceptibility to VRC: R (R > 0.12)
[4]
  Susceptibility to VRC: S (Voriconazole (VRC) S ≤ 0.12)

## CC(C)=CCC1=C(O)C(O)(CC=C(C)C)C(=O)C(C(=O)C(C)C)=C1O (stereo in doubt) [Cohumulone, cohumulone]
S. aureus T28.1 (MRSA) [1]; [10]
  MIC: 156 µg/mL
S. aureus T28.1 (MRSA) [1]; [11]
  MIC: 448 µM
S. aureus 08143 (MSSA); [12]
  MIC: 313 µg/mL
S. aureus 08143 (MSSA); [13]
  MIC: 899 µM
S. aureus T25.10 (MRSA); [12]
  MIC: 313 µg/mL
S. aureus T25.10 (MRSA); [13]
  MIC: 899 µM
S. aureus T26A4 (MSSA); [12]
  MIC: 313 µg/mL
S. aureus T26A4 (MSSA); [13]
  MIC: 899 µM

## N=C(N)c1ccc(OCCCCCOc2ccc(C(=N)N)cc2)cc1 [PEN, pentamidine]
[5]; Leishmania mexicana, read-out: IC50 (converted)
  IC50: 0.07 µg/mL
[5]; Leishmania mexicana, value in parentheses, read-out: IC50 (converted)
  IC50: 0.21 µM

## OC(Cn1cncn1)(Cn1cncn1)c1ccc(F)cc1F [FLC, Fluconazole]
Candida albicans 13203
  Susceptibility to FLC: R (R > 4)
[4]
  Susceptibility to FLC: S (Fluconazole (FLC) S ≤ 2)

## CC[C@@]1(O)C(=O)OCc2c1cc1n(c2=O)Cc2cc3ccccc3nc2-1 [CAMP, camptothecin]
[6]; HepG2, read-out: IC50 ± SD
  IC50: 0.4 ± 0.2 µg/mL
[6]; HepG2, value in parentheses, read-out: IC50 (converted)
  IC50: 1.15 µM
[7]; Homo sapiens, read-out: IC50 ± SD
  IC50: 0.06 µg/mL
[7]; Homo sapiens, value in parentheses, read-out: IC50 (converted)
  IC50: 0.17 µM
[8]; Mus musculus, read-out: IC50 ± SD
  IC50: 0.01 µg/mL
[8]; Mus musculus, value in parentheses, read-out: IC50 (converted)
  IC50: 0.03 µM
[9]; read-out: IC50 ± SD
  IC50: 4.4 ± 1.5 µg/mL
[9]; [14]
  IC50: 12.6 µM

## Cc1onc(-c2ccccc2)c1C(=O)N[C@@H]1C(=O)N2[C@@H]1SC(C)(C)[C@@H]2C(=O)O [OXA, oxacillin]
S. aureus T28.1 (MRSA) [1]; S. aureus T28.1
  Susceptibility to OXA: R (R ≥ 4 µg/mL)
S. aureus 08143 (MSSA); S. aureus 08143
  Susceptibility to OXA: S (S ≤ 2 µg/mL)
S. aureus T25.10 (MRSA); S. aureus T25.10
  Susceptibility to OXA: R (R ≥ 4 µg/mL)
S. aureus T26A4 (MSSA); S. aureus T26A4
  Susceptibility to OXA: S (S ≤ 2 µg/mL)
S. aureus T28.1 (MRSA) [2]; in the presence of lupulone
  MIC for oxacillin in combination: < 2 µg/mL
S. aureus T28.1 (MRSA) [2]; in the presence of xanthohumol
  MIC for oxacillin in combination: < 2 µg/mL

## humulone
S. aureus T28.1 (MRSA) [1]; S. aureus T28.1 (MRSA)
  MIC: 78 µg/mL
S. aureus T28.1 (MRSA) [1]; S. aureus T28.1 (MRSA), value in parentheses, read-out: MIC
  MIC: 215.5 µM
S. aureus 08143 (MSSA)
  MIC: 156 µg/mL
S. aureus 08143 (MSSA); [15]
  MIC: 430.9 µM
S. aureus T25.10 (MRSA)
  MIC: 156 µg/mL
S. aureus T25.10 (MRSA); [15]
  MIC: 430.9 µM
S. aureus T26A4 (MSSA)
  MIC: 156 µg/mL
S. aureus T26A4 (MSSA); [15]
  MIC: 430.9 µM
[5]
  IC50: 28.8 ± 1.5 µg/mL
[5]; [14]
  IC50: 77.9 µM
[3]
  IC50: 10.9 ± 0.8 µg/mL
[3]; [14]
  IC50: 30.1 µM
[7]
  IC50 ± SD: 10.5 ± 2.3 µg/mL
[7]; [14]
  IC50: 29 µM
[8]
  IC50 ± SD: 11.5 ± 0.3 µg/mL
[8]; [14]
  IC50: 31.7 µM

## C[C@@H]1[C@H](O)[C@@H](C)/C=C/C=C/C=C/C=C/C=C/C=C/C=C/[C@H](O[C@@H]2O[C@H](C)[C@@H](O)[C@H](N)[C@@H]2O)C[C@@H]2O[C@](O)(C[C@@H](O)C[C@@H](O)[C@H](O)CC[C@@H](O)C[C@@H](O)CC(=O)O[C@H]1C)C[C@H](O)[C@H]2C(=O)O [AMB, Amphotericin B]
Candida albicans 13203
  Susceptibility to AMB: S (Amphotericin B (AMB) S ≤ 1)
[4]
  Susceptibility to AMB: S (Amphotericin B (AMB) S ≤ 1)
